# Where two headings read alike, the source gives them in different places.
# Tests used:
# [1] = system: wild-type SARS-CoV-2 (2019-nCoV/USA-WA1/2020 strain); format: cell-based
# VSV-Gpp = format: cell-based, vesicular stomatitis virus
# in vitro [2] = conditions: human
# in vitro [3] = conditions: African green monkey
# in vitro [4] = conditions: human; remark: listed apart in the source
# [5] = system: SARS-CoV-2 S protein-mediated cell-cell fusion; format: cell-based; conditions: 30 μM; 48 h
# SARS-CoV-2-NLuc = test: microbe, parasite or virus in culture; format: cell-based; conditions: Severe acute respiratory syndrome coronavirus 2, Vero C1008
# icSARS-CoV-2-mNeonGreen = format: cell-based, SARS-CoV-2
# SARS2-Spp = format: cell-based, SARS-CoV-2
# [6] = system: SARS-CoV-2 S protein-mediated cell-cell fusion; format: cell-based; conditions: 30, 10, 3, 1 μM; 48 h
# [7] = system: SARS2-Spp binding to Huh7 cells; format: cell-based, SARS-CoV-2
# [8] = target: recombinant SARS-CoV-2 S1-S2 protein (Severe acute respiratory syndrome coronavirus 2, UniProt P0DTC2); format: binding
Molecule,suppression of viral RNA levels [1],inhibition of VSV-Gpp entry (VSV-Gpp),CC50 (in vitro [2]) [µM],CC50 (in vitro [3]) [µM],CC50 (in vitro [4]) [µM],inhibition of fusion (GFP-RFP colocalization) [5],inhibition when present at early entry time points (SARS2-Spp),inhibition when present during binding (SARS2-Spp),inhibition of donor-recipient fusion events (SmBit-LgBit) [6],effect on viral binding to cells [7],also measured
CCC(CC)COC(=O)[C@H](C)N[P@](=O)(OC[C@H]1O[C@@](C#N)(c2ccc3c(N)ncnn23)[C@H](O)[C@@H]1O)Oc1ccccc1 [remdesivir],up to 3 log,,,,,,,,,,
"Cc1cc(-c2nc(CN3CCC(C(=O)NCCCN4C[C@H](C)C[C@H](C)C4)CC3)co2)ccc1F [Fluoxazolevir, fluoxazolevir]",up to 2 log,minimal,32.7,> 100,> 100,showed inhibition,potent inhibition,minimal inhibition,inhibited,little or no effect,EC50 (SARS-CoV-2-NLuc): 1.96 µM; EC50 (icSARS-CoV-2-mNeonGreen): single-digit micromolar range
"CN(C)C(=O)COC(=O)Cc1ccc(OC(=O)c2ccc(NC(=N)N)cc2)cc1 [Camostat, camostat]",,,> 100,> 100,> 100,did not decrease,,,did not suppress,,
CCOC(=O)[C@H]1O[C@@H]1C(=O)N[C@@H](CC(C)C)C(=O)NCCC(C)C [E-64d],,,,,,did not decrease,displayed inhibition,displayed inhibition,did not suppress,little or no effect,CC50 (Huh7 cells): > 100 µM; CC50 (293ACE2 cells): > 100 µM; inhibition when present at middle entry time point (SARS2-Spp): displayed inhibition; CC50 (MA104 cells): > 100 µM
"CN1CCN([C@@H](c2ccccc2)c2ccc(Cl)cc2)CC1 [(S)-CCZ, (S)-chlorcyclizine]",,no inhibition,> 30,36.2,> 100,showed inhibition,,,inhibited,,CC50 (Huh7 cells; human): 41.7 µM
"CCN1CCN(C(c2ccc(Cl)cc2)c2ccc(Cl)cc2)CC1 [Dichlorcyclizine, dichlorcyclizine]",up to 2 log,no inhibition,,> 100,> 100,strong inhibition,potent inhibition,minimal inhibition,potent inhibition,little or no effect,EC50 (SARS-CoV-2-NLuc): 4.99 µM; EC50 (icSARS-CoV-2-mNeonGreen): single-digit micromolar range; competition of probe cross-linking to the spike protein ([8]; 30-fold excess over CCZ-DB): could outcompete
O=C(CCCCC1SCC2NC(=O)NC21)NCCOCCOCCN1CCN(C(c2ccc(Cl)cc2)c2ccc(C3(C(F)(F)F)N=N3)cc2)CC1 (centres unmarked) [CCZ-DB],,,,,,,,,,,"binding to recombinant S1-S2 protein by cross-linking ([8]; 10 µM probe, UV irradiation, Neutravidin pull-down, anti-S2 blot): direct binding"
Heparan sulfate,,,,,,,,,,significantly inhibited,
"CCN(CC)CCCC(C)Nc1ccnc2cc(Cl)ccc12 (centres unmarked) [Chloroquine, chloroquine]",,strong inhibition,> 30,> 100,> 100,,,,,,CC50 (Huh7 cells; human): 37.5 µM
